Laboratory results published in US6004952A, “Micacocidin derivatives” (Shinogi & Co., Ltd., priority 1996, dated 1999).
Converted amounts (≈) assume the structure as drawn. Where two headings read alike, the source gives them in different places.

What was measured:
[1] = system: M. gallisepticum; assay: In vivo evaluation test for M. gallisepticum in chickens (air-sac lesions); settings: 6 chickens tested
[2] = system: Serpulina hyodysenteriae; assay: MIC, agar dilution method, anaerobic, Serpulina hyodysenteriae; type: cell-based, S. hyodysenteriae ATCC 27164
[3] = system: Clostridium perfringens; assay: microbe, parasite or virus in culture; type: cell-based, C. perfringens ATCC 13124
[4] = system: Mycoplasma; assay: MIC to Mycoplasmas (summary in words); type: cell-based
[5] = system: Eimeria tenella; assay: Growth inhibition activities to avian coccidium in primary chicken kidney cells; type: cell-based; settings: Eimeria tenella; more than 80% of suppression rate regarded as effective; read-out: Effective dose (growth inhibition)
Method: The kidneys of SPF new born chicken was sterilely removed, which was treated with trypsin and the resultant primary kidney cells were cultured in 24-well plate. Monolayer culture after cultured for 3 days was treated simultaneously with compounds adjusted to predetermined concentration and sporozoit obtained by artificial excystation, which was cultured a 40° C. Premature and mature schizonts were observed under microscope, and the growth inhibition activities (suppression rate) for each treatment group were calculated at a proportion of the number of schizonts for the sporozoit-inoculated, compound-untreated control group (100%).

[6] = Cytotoxicity to primary chicken kidney culture cells; type: cell-based; settings: primary chicken kidney cells
[7] = system: mice spleen cells; assay: Suppression of reaction of mice spleen cells to Concanavalin A, in vitro (MTT); type: cell-based, BDF1 mice
Method: (§1) To each well of 96 well microtiter plate were added 5×10^5 spleen cells of BDF1 mice suspended in 0.1 ml of RPMI 1640 medium supplemented with 10% bovine fetus serum (supplemented with 2 mM sodium hydrogen carbonate, 50 Units/ml of penicillin, 50 μg/ml of streptomycin, and 5×10^-5 M of 2-mercaptoethanol), and then, 5 μg/ml of Concanavalin A (Con A) or 10 μg/ml of lypopolysaccaride (LPS) and various concentrations of test substance, of which final volume was adjusted to 0.2 ml. Test substances were dissolved in dimethylsulfoxide (DMSO), diluted with RPMI 1640 stated above, and added to the wells so that final concentration of the substances becomes less than 10000 ng/ml. The 96-well microtiter plates were cultured at 37° C. for 3 days in an incubator which was maintained at the humidity of 100%, 5% of carbon dioxide and 95% of air. After cultivation is completed, […] of 6 mg/ml solution of MTT {3-(4,5-dimethylthiazol-2yl)-2,5 diphenyltetrazoliumbromide} (Sigma) is added to each well, which is cultured at 37° C. for […] under the same conditions. After cultivation is completed, formazan formed is dissolved by adding 50 μl of a solution of 20% dodecyl sodium sulfonate (SDS) in 0.02N hydrochloric acid and kept standing at 37° C. for 24 hours. The absorbance (OD) of the formazan which was produced in proportion to the number of alive cells, was determined by using immunoreader equipped with 570 nm filter (see The Journal of Immunological Methods, Vol.65, 55-63, 1983).
(§2) Cell growth inhibition rate and IC50 value were calculated according to the correlation between the concentration and the absorbance for each substance.

[8] = system: mice spleen cells; assay: Suppression of reaction of mice spleen cells to lypopolysaccaride (LPS), in vitro (MTT); type: cell-based, BDF1 mice
Method: as §1, §2

[9] = system: M. pneumoniae; assay: MIC, liquid dilution method, Mycoplasma pneumoniae; settings: Mycoplasmoides pneumoniae
[10] = system: M. gallisepticum; assay: MIC, liquid dilution method, Mycoplasma gallisepticum; settings: Mycoplasmoides gallisepticum
[11] = system: M. hyopneumoniae; assay: MIC, liquid dilution method, Mycoplasma hyopneumoniae; settings: Mesomycoplasma hyopneumoniae
[12] = system: Candida albicans; assay: Antifungal activity, micro-liquid dilution method, Candida albicans; type: cell-based, Candida albicans strain Ca-15; settings: Candida albicans, 24 h, 30° C., read-out: Antifungal activities: IC50
Method: (§3) Antifungal activities of the compounds to Candida albicans (strain Ca-15) and Asperilhm fumigatus (strain MA), representative pathogenic fungi, were determined by micro-liquid dilution method using 96-well microplates. A fungal suspension stored under freezing was adjusted to 1×1 O^5 CFU/ml by medium, of which 100 μl portions were charged into each well. The compound of the present invention was dissolved in dimethylsulfoxide (DMSO). Using the resultant solution, 2-fold dilution series were prepared together with the fungal suspension charged into the wells. YNB medium and RPMI medium were used. After cultured for 24 hours at 30° C., evaluation was performed by detecting the turbidity (wave length: 595 nm) using microplate reader.

[13] = system: Aspergillus fumigatus; assay: Antifungal activity, micro-liquid dilution method, Aspergillus fumigatus; type: cell-based, Aspergillus fumigatus strain MA; settings: Aspergillus fumigatus, 24 h, 30° C., read-out: Antifungal activities: IC50
Method: as §3

## CN(C)[C@@H]1C(O)=C(C(N)=O)C(=O)[C@@]2(O)C(O)=C3C(=O)c4c(O)ccc(Cl)c4[C@@](C)(O)[C@H]3C[C@@H]12 [CTC, chlortetracycline, reference compound]
[1]; 50 mg/kg × 1, orally
  air-sac lesions (the number of chickens): (+) slight: 0
  air-sac lesions (the number of chickens): (++-+++) moderate to severe: 3
  air-sac lesions (the number of chickens): (-) non: 3
  number of chickens having lesions: 3
[1]; 100 mg/kg × 1, orally
  air-sac lesions (the number of chickens): (+) slight: 0
  air-sac lesions (the number of chickens): (++-+++) moderate to severe: 1
  air-sac lesions (the number of chickens): (-) non: 5
  number of chickens having lesions: 1
[1]; 200 mg × 1, orally
  air-sac lesions (the number of chickens): (+) slight: 0
  air-sac lesions (the number of chickens): (++-+++) moderate to severe: 1
  air-sac lesions (the number of chickens): (-) non: 5
  number of chickens having lesions: 1

## CCCCCc1cccc(OCOC)c1C1=NC(C2SCC(C(O)C(C)(C)C3=NC(C)(C(=O)OCOC)CS3)N2C)CS1 (stereo not shown) [Compound 18]
[2]
  activity to Serpulina (Treponema) hyodysenteriae: showed the activity
[3]
  activity to Clostridium perflingens: showed the activity
[4]
  MICs to Mycoplasmas: low MICs
[5]
  minimal effective concentration: 10 µg/mL
[6]
  MCC: > 10 µg/mL
[7]
  suppression of the reaction to Con A of spleen cells: suppressed
[7]; Mus musculus, 72 h, Con A, 39 ng/ml, read-out: Suppression rate
  inhibition at 0.039 µg/mL: 14.7%
[7]; Mus musculus, 72 h, Con A, 78 ng/ml, read-out: Suppression rate
  inhibition at 0.078 µg/mL: 25.7%
[7]; Mus musculus, 72 h, Con A, 156 ng/ml, read-out: Suppression rate
  inhibition at 0.156 µg/mL: 75.5%
[7]; Mus musculus, 72 h, Con A, 312 ng/ml, read-out: Suppression rate
  inhibition at 0.312 µg/mL: 94.9%
[7]; Mus musculus, 72 h, Con A, 625 ng/ml, read-out: Suppression rate
  inhibition at 0.625 µg/mL: 98.6%
[7]; Mus musculus, Con A
  IC50: 0.101 µg/mL (≈ 0.154 µM)
[8]
  suppression of the reaction to LPS of spleen cells: suppressed
[8]; Mus musculus, 72 h, LPS, 39 ng/ml, read-out: Suppression rate
  inhibition at 0.039 µg/mL: 27.4%
[8]; Mus musculus, 72 h, LPS, 78 ng/ml, read-out: Suppression rate
  inhibition at 0.078 µg/mL: 41.5%
[8]; Mus musculus, 72 h, LPS, 156 ng/ml, read-out: Suppression rate
  inhibition at 0.156 µg/mL: 74.6%
[8]; Mus musculus, 72 h, LPS, 312 ng/ml, read-out: Suppression rate
  inhibition at 0.312 µg/mL: 93.4%
[8]; Mus musculus, 72 h, LPS, 625 ng/ml, read-out: Suppression rate
  inhibition at 0.625 µg/mL: 101%
[8]; Mus musculus, LPS
  IC50: 0.084 µg/mL (≈ 0.128 µM)
[9]
  MIC: 0.025 µg/mL (≈ 0.0382 µM)
[10]
  MIC: 1.56 µg/mL (≈ 2.39 µM)
[11]
  MIC: 0.05 µg/mL (≈ 0.0765 µM)

## CCCCCc1cccc(O)c1C1=NC(C2SCC(C(O)C(C)(C)C3=NC(C)(CO)CS3)N2C)CS1 (stereo not shown) [Compound 32]
[5]
  minimal effective concentration: 10 µg/mL
[6]
  MCC: > 10 µg/mL
[9]
  MIC: 0.025 µg/mL (≈ 0.0453 µM)
[10]
  MIC: 0.39 µg/mL (≈ 0.707 µM)
[11]
  MIC: 0.05 µg/mL (≈ 0.0906 µM)

## CCCCCc1cccc(O)c1C1=NC(C2SCC(C(OCc3ccc(Cl)cc3)C(C)(C)C3=NC(C)(C(=O)OC)CS3)N2C)CS1 (stereo not shown) [Compound 13]
[5]
  minimal effective concentration: > 10 µg/mL
[6]
  MCC: > 10 µg/mL

## CCCCCc1cccc(O)c1C1=NC(C2SCC(C(O)C(C)(C)C3=NC(C)(C(=O)N(C)O)CS3)N2C)CS1 (stereo not shown) [Compound 25]
[12]; RPMI medium
  IC50: 6.3 µg/mL (≈ 10.6 µM)
[12]; YNB medium
  IC50: 50 µg/mL (≈ 84.1 µM)
[13]; RPMI medium
  IC50: 0.2 µg/mL (≈ 0.336 µM)
[13]; YNB medium
  IC50: 50 µg/mL (≈ 84.1 µM)

## CCCCCc1cccc(O)c1C1=NC(C2SCC(C(O)C(C)(C)C3=NC(C)(C(=O)NCCO)CS3)N2C)CS1 (stereo not shown) [Compound 30]
[5]
  minimal effective concentration: 2.5 µg/mL
[6]
  MCC: > 10 µg/mL
[9]
  MIC: 0.2 µg/mL (≈ 0.328 µM)
[10]
  MIC: 0.78 µg/mL (≈ 1.28 µM)
[11]
  MIC: 0.39 µg/mL (≈ 0.641 µM)

## CCCCCc1cccc(O)c1C1=NC(C2SCC(C(O)C(C)(C)C3=NC(C)(C(=O)NC(C)C(=O)OC)CS3)N2C)CS1 (stereo not shown) [Compound 28]
[4]
  MICs to Mycoplasmas: low MICs
[5]
  minimal effective concentration: 10 µg/mL
[6]
  MCC: > 10 µg/mL
[9]
  MIC: 0.05 µg/mL (≈ 0.0768 µM)
[10]
  MIC: 0.39 µg/mL (≈ 0.599 µM)
[11]
  MIC: 0.1 µg/mL (≈ 0.154 µM)

## CCCCCc1cccc(O)c1C1=NC(C2SCC(C(O)C(C)(C)C3=NC(C)(C(=O)OCc4ccc(Cl)cc4)CS3)N2C)CS1 (stereo not shown) [Compound 22]
[5]
  minimal effective concentration: 2.5 µg/mL
[6]
  MCC: > 10 µg/mL
[9]
  MIC: 0.39 µg/mL (≈ 0.565 µM)
[10]
  MIC: > 3.13 µg/mL
[11]
  MIC: 0.1 µg/mL (≈ 0.145 µM)
